From EPA's ToxRefDB 2 come the findings set out here.

A value given as a limit tells only on which side of the number the result lay.

Data set [1] concerns rabbit. The following applies: Prenatal developmental toxicity study, new zealand white, Oral, Gavage/Intubation, dose end: 28 GD.
The test system of data set [2] is rabbit. The following applies: Prenatal developmental toxicity study, new zealand white, Oral, Gavage/Intubation, dose end: 28 GD. This is another data set of the same source.
For data set [3], the system named is rat. The following applies: Peri- and post-natal toxicity study (Segment III), sprague dawley, Oral, Gavage/Intubation, dose end: 40 PND.
In data set [4] the test system is dog. The following applies: Prenatal developmental toxicity study, beagle, Oral, Feed, dose end: 56 GD.
The test system of data set [5] is rat. The following applies: Combined chronic toxicity/carcinogenicity, wistar, Oral, Feed, dose end: 104 week.
Data set [6] deals with dog. The following applies: Chronic toxicity, beagle, Oral, Feed, dose end: 104 week.
Data set [7] has as its system rabbit. The following applies: Prenatal developmental toxicity study, new zealand white, Oral, Gavage/Intubation, dose end: 18 GD.
Data set [8] concerns rat. The following applies: Subchronic oral toxicity in rodents, fischer, Feed, dose end: 13 week.
The subject of data set [9] is mouse. The following applies: Subchronic oral toxicity in rodents, b6c3f1, Feed, dose end: 13 week.
Data set [10] relates to rat. The following applies: Subchronic oral toxicity in rodents, fischer, Gavage/Intubation, dose end: 13 week.
The subject of data set [11] is rat. The following applies: Combined chronic toxicity/carcinogenicity, fischer, Oral, Feed, dose end: 104 week.
Data set [12] has as its system mouse. The following applies: Combined chronic toxicity/carcinogenicity, b6c3f1, Oral, Feed, dose end: 105 week.
For data set [13], the system named is mouse. The following applies: Subchronic oral toxicity in rodents, b6c3f1, Gavage/Intubation, dose end: 13 week.
Where [14] appears, read: group: developmental, developmental / developmental malformation / trunk / omphalocele + systemic / in life observation / body weight / fetal weight.
[15] abbreviates: group: maternal, reproductive / reproductive performance / resorptions / resorptions + systemic / in life observation / body weight / body weight + systemic….
[16] abbreviates: group: developmental, developmental / developmental malformation / bone / delayed ossification + developmental / developmental malformation / bone / hemicentric….
Setting [17] is: group: maternal, systemic / in life observation / body weight / body weight gain + systemic / in life observation / food consumption / food consumption.
[18] abbreviates: group: maternal, systemic / in life observation / body weight / body weight gain + systemic / in life observation / food consumption / food consumption + ….
The mark [19] stands for this setting: group: developmental, developmental / developmental landmark / vaginal opening / vaginal opening.
[20] abbreviates: group: maternal, reproductive / reproductive performance / estrous cycle / abnormal + reproductive / reproductive performance / estrous cycle / corpora lutea.
Where [21] appears, read: group: parental, systemic / clinical chemistry / estradiol / estradiol + systemic / organ weight / kidney / absolute + systemic / organ weight / ovary / ….
Where [22] appears, read: group: developmental, developmental / offspring survival late / [other] / [other] + systemic / in life observation / body weight / offspring (pup) weight.
The mark [23] stands for this setting: group: maternal, reproductive / offspring survival early / dead fetuses / dead fetuses.
[24] abbreviates: group: cholinesterase, cholinesterase / cholinesterase / cholinesterase / plasma cholinesterase (che).
Where [25] appears, read: group: systemic, systemic / hematology / erythrocyte (rbc) count differential / erythrocyte (rbc) + systemic / hematology / reticulocyte / reticulocyte + ….
Setting [26] is: group: systemic, systemic / in life observation / food consumption / food consumption + systemic / in life observation / clinical signs / hindlimb strength….
[27] abbreviates: group: cholinesterase, cholinesterase / cholinesterase / cholinesterase / cholinesterase (che).
[28] abbreviates: group: developmental, developmental / developmental malformation / liver / discolored.
Setting [29] is: group: maternal, systemic / in life observation / body weight / body weight + systemic / in life observation / body weight / body weight gain.
Where [30] appears, read: group: systemic, systemic / in life observation / body weight / body weight + systemic / in life observation / body weight / body weight gain + systemic / in….
Where [31] appears, read: group: systemic, systemic / pathology microscopic / adrenal gland / vacuolization cytoplasmic.
Where [32] appears, read: group: systemic, systemic / hematology / hemoglobin (hgb) / hemoglobin (hgb) + systemic / hematology / mean corpuscular hemoglobin concentration (mchc) / ….
The mark [33] stands for this setting: group: systemic, systemic / hematology / hemoglobin (hgb) / hemoglobin (hgb) + systemic / in life observation / clinical signs / grip strength + systemic / ….
Where [34] appears, read: group: systemic, systemic / pathology microscopic / adrenal gland / vacuolization cytoplasmic + systemic / pathology microscopic / ovary / hypertrophy.
Where [35] appears, read: group: systemic, systemic / pathology microscopic / ovary / hyperplasia + systemic / in life observation / clinical signs / grip strength + systemic / organ ….
[36] abbreviates: group: systemic, systemic / pathology microscopic / adrenal gland / pigmentation.

`O.O.[Cu]` [Copper(II) hydroxide]: the LEL in the data set on rabbit [1] (setting [14]) is 30 mg/kg/day; in the data set with rabbit [1] (group: maternal, systemic / in life observation / body weight / body weight + systemic / in life observation / body weight / body weight gain + systemic / in…), 15 mg/kg/day; in the data set with rabbit [2] (setting [16]), 18 mg/kg/day; in the data set with rabbit [2] (setting [17]), 9 mg/kg/day. Also, the LOAEL with rabbit [1] (setting [14]) is above 30 mg/kg/day; in the data set with rabbit [1] (setting [15]) it was above 30 mg/kg/day; in the data set with rabbit [2] (setting [16]), 18 mg/kg/day; in the data set on rabbit [2] (setting [17]) it was 9 mg/kg/day. Further, the NEL in the data set on rabbit [1] (setting [14]) is 15 mg/kg/day; in the data set on rabbit [1] (setting [15]), 7.5 mg/kg/day; in the data set on rabbit [2] (setting [16]), 9 mg/kg/day; in the data set on rabbit [2] (setting [18]) it was 6 mg/kg/day. Further, the NOAEL in the data set with rabbit [1] (setting [14]) is at least 30 mg/kg/day; in the data set on rabbit [1] (setting [15]) it was at least 30 mg/kg/day; in the data set on rabbit [2] (setting [16]), 9 mg/kg/day; in the data set with rabbit [2] (setting [18]), 6 mg/kg/day.
In the data set on rat [3] (setting [19]), `CC(C)OC(=O)c1ccc(O)cc1` [Isopropylparaben] registered an LEL of 250 mg/kg/day, an LOAEL above 1000 mg/kg/day, an NEL of 62.5 mg/kg/day and an NOAEL of at least 1000 mg/kg/day. Moreover, in the data set on rat [3] (setting [20]), the LEL came to 1000 mg/kg/day, the LOAEL was above 1000 mg/kg/day, the NEL was 250 mg/kg/day and the NOAEL is at least 1000 mg/kg/day. In the data set with rat [3] (setting [21]), the LEL turned out to be 1000 mg/kg/day, the LOAEL is above 1000 mg/kg/day, the NEL turned out to be 250 mg/kg/day and the NOAEL was at least 1000 mg/kg/day.
Regarding `C1N2CN3CN1CN(C2)C3` [Methenamine], in the data set on dog [4] (setting [22]), the LEL came to 31 mg/kg/day, the LOAEL is above 31 mg/kg/day, the NEL was found to be 15 mg/kg/day and the NOAEL is at least 31 mg/kg/day. Moreover, in the data set on dog [4] (setting [23]), the LEL is 31 mg/kg/day, the LOAEL was above 31 mg/kg/day, the NEL was determined as 15 mg/kg/day and the NOAEL was at least 31 mg/kg/day.
Take `CNC(=O)Oc1cc(C)c(SC)c(C)c1` [Methiocarb]: the LEL in the data set on rat [5] (setting [24]) stood at 30 mg/kg/day; in the data set with rat [5] (group: systemic, systemic / hematology / erythrocyte (rbc) count differential / erythrocyte (rbc) + systemic / hematology / reticulocyte / reticulocyte), 10 mg/kg/day; in the data set with dog [6] (setting [24]) it was 0.75 mg/kg/day; in the data set with dog [6] (group: systemic, systemic / in life observation / food consumption / food consumption), 3 mg/kg/day; in the data set with rabbit [7] (setting [27]), 10 mg/kg/day; with rabbit [7] (setting [28]) it was 10 mg/kg/day. For the same compound, in the data set on rabbit [7] (setting [29]), the LEL stood at 10 mg/kg/day. Also, the LOAEL in the data set on rat [5] (setting [24]) is above 30 mg/kg/day; with rat [5] (group: systemic, systemic / hematology / erythrocyte (rbc) count differential / erythrocyte (rbc)), 10 mg/kg/day; in the data set with dog [6] (setting [24]), 0.75 mg/kg/day; with dog [6] (group: systemic, systemic / in life observation / clinical signs / tremors) it was 12 mg/kg/day; with rabbit [7] (setting [27]), 10 mg/kg/day; in the data set on rabbit [7] (setting [28]) it was above 10 mg/kg/day. The LOAEL in the data set on rabbit [7] (setting [29]) worked out at 10 mg/kg/day. The NEL is 10 mg/kg/day in the data set with rat [5] (setting [24]); 3.4 mg/kg/day in the data set on rat [5] (setting [25]); below 0.75 mg/kg/day in the data set with dog [6] (setting [24]); 0.75 mg/kg/day in the data set on dog [6] (setting [26]); 3 mg/kg/day with rabbit [7] (setting [27]); 3 mg/kg/day with rabbit [7] (setting [28]). Besides, the NEL with rabbit [7] (setting [29]) amounted to 3 mg/kg/day. Moreover, the NOAEL with rat [5] (setting [24]) was at least 30 mg/kg/day; with rat [5] (setting [25]), 3.4 mg/kg/day; with dog [6] (setting [24]), below 0.75 mg/kg/day; in the data set on dog [6] (setting [26]) it was 3 mg/kg/day; in the data set on rabbit [7] (setting [27]) it was 3 mg/kg/day; in the data set on rabbit [7] (setting [28]), at least 10 mg/kg/day. In the data set on rabbit [7] (setting [29]), the NOAEL came out at 3 mg/kg/day.
On to `Cc1ccc(OP(=O)(Oc2ccc(C)cc2)Oc2ccc(C)cc2)cc1.Cc1cccc(OP(=O)(Oc2cccc(C)c2)Oc2cccc(C)c2)c1.Cc1ccccc1OP(=O)(Oc1ccccc1C)Oc1ccccc1C` [Tricresyl phosphate], for which the LEL in the data set on rat [8] (setting [27]) amounted to 55 mg/kg/day; in the data set with rat [8] (setting [31]), 55 mg/kg/day; in the data set on mouse [9] (setting [27]) it was 45 mg/kg/day; in the data set with mouse [9] (setting [31]), 65 mg/kg/day; in the data set with rat [10] (setting [27]) it was 50 mg/kg/day; in the data set on rat [10] (setting [34]), 50 mg/kg/day. For the same compound, the LEL was 4 mg/kg/day in the data set on rat [11] (setting [27]); 7 mg/kg/day in the data set with rat [11] (group: systemic, systemic / pathology microscopic / ovary / hyperplasia); 7 mg/kg/day in the data set on mouse [12] (setting [27]); 8 mg/kg/day in the data set on mouse [12] (setting [36]); 50 mg/kg/day in the data set on mouse [13] (setting [27]); 50 mg/kg/day in the data set with mouse [13] (setting [34]). Further, the LOAEL with rat [8] (setting [27]) was above 750 mg/kg/day; in the data set with rat [8] (setting [30]) it was above 750 mg/kg/day; in the data set on mouse [9] (setting [27]), above 900 mg/kg/day; in the data set on mouse [9] (setting [32]), above 900 mg/kg/day; in the data set on rat [10] (setting [27]), above 800 mg/kg/day; in the data set on rat [10] (setting [33]), above 800 mg/kg/day. The LOAEL with rat [11] (setting [27]) was above 30 mg/kg/day; in the data set on rat [11] (setting [35]), above 30 mg/kg/day; in the data set with mouse [12] (setting [27]), 7 mg/kg/day; in the data set with mouse [12] (setting [36]) it was 8 mg/kg/day; in the data set with mouse [13] (setting [27]), above 800 mg/kg/day; in the data set with mouse [13] (setting [30]), above 800 mg/kg/day. The NEL in the data set on rat [8] (setting [27]) was below 55 mg/kg/day; in the data set with rat [8] (setting [31]), below 55 mg/kg/day; in the data set on mouse [9] (setting [27]), below 45 mg/kg/day; in the data set on mouse [9] (setting [31]) it was below 65 mg/kg/day; in the data set with rat [10] (setting [27]), below 50 mg/kg/day; with rat [10] (setting [34]), below 50 mg/kg/day. The NEL is below 4 mg/kg/day with rat [11] (setting [27]); 4 mg/kg/day in the data set on rat [11] (setting [35]); below 7 mg/kg/day in the data set with mouse [12] (setting [27]); below 8 mg/kg/day in the data set with mouse [12] (setting [36]); below 50 mg/kg/day with mouse [13] (setting [27]); below 50 mg/kg/day with mouse [13] (setting [34]). Further, the NOAEL with rat [8] (setting [27]) is at least 750 mg/kg/day; with rat [8] (setting [30]) it was at least 750 mg/kg/day; in the data set on mouse [9] (setting [27]), at least 900 mg/kg/day; with mouse [9] (setting [32]), at least 900 mg/kg/day; in the data set on rat [10] (setting [27]), at least 800 mg/kg/day; in the data set on rat [10] (setting [33]), at least 800 mg/kg/day. Further, the NOAEL with rat [11] (setting [27]) was at least 30 mg/kg/day; in the data set with rat [11] (setting [35]), at least 30 mg/kg/day; in the data set with mouse [12] (setting [27]), below 7 mg/kg/day; in the data set with mouse [12] (setting [36]), below 8 mg/kg/day; in the data set with mouse [13] (setting [27]) it was at least 800 mg/kg/day; in the data set with mouse [13] (setting [30]), at least 800 mg/kg/day.
